Values of other authors, collected in article PMC12300650, “Development and Characterization of a New Oral Antileishmanial Bis(pyridine-2-Carboxamidine) Drug Through Innovative Dissolution Testing in Biorelevant Media Combined with Pharmacokinetic Studies” (Pharmaceutics, 2025).
Read-outs that look alike come from different tables or passages of the source.

[1] = FaSSIF pH 6.5, ref Higashino et al., 2023 [23]
[2] = Two state FaSSGF to FaSSIF, ref Arnold et al., 2011 [22]
[3] = FaSSIF pH 6.8, ref Naing et al., 2024 [24]

Precipitation time [1]	Supersaturation Time [1]	Precipitation time [2]	Supersaturation Time [2]	Precipitation time [3]	Supersaturation Time [3]	Compound
30 to 60 min	30 min	–	–	–	–	CC(=O)N1CCN(c2ccc(OCC3COC(Cn4ccnc4)(c4ccc(Cl)cc4Cl)O3)cc2)CC1 (centres unmarked) [Ketoconazole]
60 to 120 min	30 min	20 to 180 min	20 min	–	–	OCCN(CCO)c1nc(N2CCCCC2)c2nc(N(CCO)CCO)nc(N3CCCCC3)c2n1 [Dipyridamole]
–	–	–	–	30 to 60 min	30 min	CC(C)c1nc(CN(C)C(=O)N[C@H](C(=O)N[C@@H](Cc2ccccc2)C[C@H](O)[C@H](Cc2ccccc2)NC(=O)OCc2cncs2)C(C)C)cs1 [Ritonavir]
